From patent US6585953B2, “Synthesis of 17F labeled fluoroalkanes” (Wisconsin Alumni Research Foundation, priority 2000, dated 2003)
Values belong to the compound of their own block, whether it stands above or below them.

Tests used:
[1] = Clearance and distribution of inhaled tracer in test subjects; assay type: in vivo
Excerpt: Positron emitting ^17F (Eβ^+(max)=1.74 MeV; t½≈64 seconds) has an ideal half life for probing such diverse processes as gray matter cerebral activity or gas-phase reactions on an industrial scale. Because of the very short half life of ^17F, tracers labeled with this isotope such as ^17F labeled fluoromethane provide very short half life cerebral blood flow agents that have important application in PET studies of seizure and other transient brain phenomena. The shorter half life of ^17F with respect to ^15O permits repeat images to be obtained twice as fast with ^17F labeled tracers as compared to ^15O labeled tracers such as water which is presently in wide use as a tracer as described above. The ability to scan twice as fast using ^17F labeled tracers allows more data to be collected in the same amount of time and should allow more test subjects to be evaluated using instruments that are currently in high demand. Additionally, ^17F labeled tracers show improved signal to noise level ratios over ^15O labeled tracers providing increased sensitivity. ^15O tracers such as ^15O labeled water are usually administered in a manner that is more invasive than are tracers such as ^17F labeled fluoromethane. For example, ^15O labeled tracers are usually administered by injection and arterial measurements are then made from an arterial cannulation. On the other hand, ^17F labeled tracers such as fluoromethane may be administered by having a test subject inhale the tracer, and arterial measurements can be made from exhalations.
FIG. 5 is a gas chromatograph (Porpak Q column; He carrier gas; thermal conductivity detector, electrochemical detector, and positron coincidence radiation detector) showing the radiochemical purity of ^17F labeled fluoromethane produced by the present invention. The radiochemical purity of the ^17F labeled fluoromethane was determined to be 91 percent with only ^17F labeled CF4 from the target as a radiochemical impurity. […] Thus, the presence of CF4 only impacts the dosimetry to the lungs and trachea.

[2] = cited from earlier work

Compound: FC(F)(F)F [CF4]
distribution into blood when inhaled ([1]; inhaled as tracer impurity, only impacts dosimetry to lungs and trachea): stays out of the blood

clearance ([1]; by exhalation): rapidly cleared by exhalation
biological half life ([1]; in vivo): quite short
Compound: C[17F] [^17F labeled fluoromethane]

Compound: [15OH2] [^15O labeled water]
permeability surface product ([2]; at high flows the signal is reduced): relatively low
clearance from test subjects ([2]; usually administered by injection): slow to clear
